# According to patent publication US9096591B2, “Tetracyclic compounds” (Medivation Technologies, Inc., priority 2007, dated 2015):
# Where two headings read alike, the source gives them in different places.
# Key:
# [1] = target: T1, human recombinant histamine H2 receptor (Homo sapiens, UniProt P25021); assay: Histamine H2 radioligand binding ([125I]Aminopotentidine); conditions: read-out: Inhibition of ligand binding, Hist. H2
# T1 construct: expressed in transfected cells; host or cells: CHO-K1 cells
# T1 sequence (P25021 whole entry): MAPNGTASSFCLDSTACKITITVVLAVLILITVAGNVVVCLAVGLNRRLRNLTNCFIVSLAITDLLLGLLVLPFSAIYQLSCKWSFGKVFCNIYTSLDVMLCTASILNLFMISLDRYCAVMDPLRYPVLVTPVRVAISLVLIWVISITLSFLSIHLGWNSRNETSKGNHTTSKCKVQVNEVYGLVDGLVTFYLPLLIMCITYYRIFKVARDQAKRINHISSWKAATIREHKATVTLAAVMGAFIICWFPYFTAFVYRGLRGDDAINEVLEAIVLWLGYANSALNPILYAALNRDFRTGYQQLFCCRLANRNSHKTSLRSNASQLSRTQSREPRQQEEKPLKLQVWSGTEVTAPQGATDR
# How it was run: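 Test compounds were assessed for their ability to displace radioligand from the human recombinant histamine H2 receptor. Non-specific binding was determined in the presence of 3 μM Tiotidine, and results were expressed as percent inhibition of specific binding, with 1% DMSO serving as the vehicle.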
# [2] = target: T2, human recombinant serotonin (5-Hydroxytryptamine) 5-HT6 receptor (Homo sapiens, UniProt P50406); assay: Serotonin 5-HT6 radioligand binding ([3H]LSD); design: Inhibition of ligand binding, Ser. 5-HT6: concentration or dose not given beside the values; conditions: percent inhibition of specific binding
# T2 construct: expressed in transfected cells; host or cells: human HeLa cells
# T2 sequence (P50406 whole entry): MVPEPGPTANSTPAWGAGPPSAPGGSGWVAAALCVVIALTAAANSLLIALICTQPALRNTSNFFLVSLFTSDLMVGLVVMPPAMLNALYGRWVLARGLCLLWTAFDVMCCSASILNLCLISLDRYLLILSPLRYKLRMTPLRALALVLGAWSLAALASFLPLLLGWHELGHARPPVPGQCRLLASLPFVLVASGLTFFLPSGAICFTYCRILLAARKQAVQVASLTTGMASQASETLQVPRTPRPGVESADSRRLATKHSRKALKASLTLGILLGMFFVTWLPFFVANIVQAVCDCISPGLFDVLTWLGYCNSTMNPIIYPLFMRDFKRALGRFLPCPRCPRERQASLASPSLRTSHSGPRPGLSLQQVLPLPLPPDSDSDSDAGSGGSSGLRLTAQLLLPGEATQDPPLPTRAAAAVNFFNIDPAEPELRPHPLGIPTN
# Description: Receptor proteins were filtered and washed, the filters were then counted to determine [3H]LSD specifically bound. […] Biochemical assay results are presented as the percent inhibition of specific binding in Table 6.
# [3] = target: T3, human recombinant serotonin (5-Hydroxytryptamine) 5-HT2C receptor (Homo sapiens, UniProt P28335); assay: Serotonin 5-HT2C radioligand binding ([3H]Mesulergine); design: Inhibition of ligand binding, Ser. 5-HT2C: concentration or dose not given beside the values; conditions: percent inhibition of specific binding
# T3 construct: expressed in transfected cells; host or cells: CHO-K1 cells
# T3 sequence (P28335 33-458): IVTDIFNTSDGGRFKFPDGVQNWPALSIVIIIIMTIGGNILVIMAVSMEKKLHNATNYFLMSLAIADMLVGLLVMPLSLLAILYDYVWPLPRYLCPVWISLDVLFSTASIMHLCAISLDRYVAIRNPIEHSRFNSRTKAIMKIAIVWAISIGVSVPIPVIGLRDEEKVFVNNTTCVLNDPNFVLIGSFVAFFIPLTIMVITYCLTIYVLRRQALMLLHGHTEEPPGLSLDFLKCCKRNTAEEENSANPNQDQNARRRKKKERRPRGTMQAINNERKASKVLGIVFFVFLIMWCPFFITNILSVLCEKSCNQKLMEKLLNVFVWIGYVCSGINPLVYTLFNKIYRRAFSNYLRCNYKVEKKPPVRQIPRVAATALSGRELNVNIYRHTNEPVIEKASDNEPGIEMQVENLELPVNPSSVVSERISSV
# Method: Compounds of the invention were incubated with 1 nM [^3H]Mesulergine for 60 minutes at 25° C. Non-specific binding was estimated in the presence of 1 μM Mianserin. Receptor proteins were filtered and washed, the filters were then counted to determine [^3H]Mesulergine specifically bound. […] Biochemical assay results are presented as the percent inhibition of specific binding in Table 6.
# [4] = target: T4, human recombinant histamine H1 receptor (Homo sapiens, UniProt P35367); assay: Histamine H1 radioligand binding ([3H]Pyrilamine); conditions: read-out: Inhibition of ligand binding, Hist. H1
# T4 construct: expressed in transfected cells; host or cells: CHO cells
# T4 sequence (P35367 whole entry): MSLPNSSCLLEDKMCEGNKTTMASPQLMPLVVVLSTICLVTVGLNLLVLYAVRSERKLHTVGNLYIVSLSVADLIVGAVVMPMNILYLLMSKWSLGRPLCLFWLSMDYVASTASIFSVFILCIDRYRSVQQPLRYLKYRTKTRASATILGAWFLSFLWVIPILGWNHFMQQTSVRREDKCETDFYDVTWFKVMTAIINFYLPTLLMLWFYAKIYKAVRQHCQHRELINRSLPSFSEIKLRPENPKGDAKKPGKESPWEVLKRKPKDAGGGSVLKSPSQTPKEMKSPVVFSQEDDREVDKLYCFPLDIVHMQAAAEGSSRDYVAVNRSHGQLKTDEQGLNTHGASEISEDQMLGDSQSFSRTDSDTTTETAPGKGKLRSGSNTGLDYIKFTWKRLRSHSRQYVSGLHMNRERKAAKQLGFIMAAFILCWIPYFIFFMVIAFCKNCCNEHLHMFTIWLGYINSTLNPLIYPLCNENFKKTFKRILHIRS
# How it was run: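 Receptor expressed in CHO cells, assayed in 50 mM Tris-HCl pH 7.4 with 2 mM MgCl2, 100 mM NaCl, 250 mM sucrose. Compounds tested at 1 μM in 1% DMSO; non-specific binding set with 1 μM pyrilamine. Filter-bound radioactivity counted; values are percent inhibition of specific binding.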
# rat brain mitochondria = assay: Ca2+-induced swelling of mitochondria (MPT pore opening); format: biochemical, Wistar rats; conditions: for A540 increase in mitochondrial suspension after addition of 100 μM of compound: 100 μM compound
# Method: Rat liver and brain mitochondria were prepared from male Wistar rats. The rats were euthanized in a CO2 chamber followed by decapitation the procedure being in compliance with the Guidelines for Animal Experiments at IPAC RAS. […]
# Brain mitochondria were isolated from the pooled forebrains of two rats. The modified method of Sims was used to isolate and purify brain mitochondria in a Percoll gradient. The brain was homogenized in “buffer A” (225 mM mannitol, 75 mM sucrose, 5 mM HEPES, 1 mM EGTA, pH 7.4 [KOH]) and centrifuged for 10 min at 1300 g. The supernatant was centrifuged for 10 min at 10000 g, and then the pellet was suspended in 15% Percoll and layered on a discontinuous gradient consisting of 40 and 23% Percoll, respectively, which was then centrifuged for 10 min at 30000 g without using brakes. The mitochondria were collected from the interface of the lower two layers and after resuspension in “buffer A”, the suspension was centrifuged at 16600 g for 10 min, then the pellet was resuspended in “buffer A”, BSA (10 mg/mL) was added to bind free fatty acids; and the suspensions was centrifuged again at 6300 g for 10 min. Following centrifugation the pelleted mitochondria were re-suspended in isolation medium without EGTA to achieve a protein concentration of 15-20 mg/ml.
# Mitochondrial swelling caused by influx of solutes through open PT pores results in an increase in light transmission (i.e., a reduced turbidity). This turbidity change offers a convenient and frequently used assay of the MPT by measurement of absorbance in mitochondrial suspensions. In the present study, the MPT induced by Ca^2+ and inorganic phosphate (Ca/Pi) was monitored by absorbance changes at 540 nm in a cuvette in a Beckman DU 640 spectrophotometer in 1 ml of buffer A plus 0.8 μM rotenone, 5 mM succinate, 1 mM KH2PO4 and 0.5 mg or 0.2 mg protein of isolated liver or brain mitochondria, accordingly. Reaction was started by the addition of triggering agent (Ca^2+). Pre-treatment and reaction were performed at 30° C. Swelling rate was quantified as ΔA540/min/mg, calculated, in all cases, from a tangent to the steepest portion of the plot of A540 versus time.
# Ca^2+-induced Swelling of mitochondria was used as the primary screening test for compounds influence on MPT pore opening. […] But the inhibition of swelling may be connected not only with direct inhibition of MPT pore opening but also with the impairment of respiratory function of mitochondria and with the compounds action on calcium transport into mitochondria. For the primary estimation of these possibilities the mitochondrial membrane potential and calcium retention capacity of mitochondria were measured. […] New synthesized compounds (except C-14 and C-43) alone induced an increase of brain mitochondria suspension turbidity. The mechanism of such effect needs additional investigations.
# [5] = read-out: IC50, Ca2+-induced (25-50 μM) swelling of brain mitochondria, rat brain mitochondria, Ca2+ 25-50 μM
SMILES,inhibition at 1 µM [1] [%],"Inhibition of ligand binding, Ser. 5-HT6 [2] [%]","Inhibition of ligand binding, Ser. 5-HT2C [3] [%]",inhibition at 1 µM [4] [%],"IC50 (rat brain mitochondria; concentration reducing to 50% the initial rate of turbidity fall after calcium addition, read-out: IC50, decrease of calcium-induced swelling of brain mitochondria) [µM]",A540 increase in mitochondrial suspension after addition of 100 μM of compound (rat brain mitochondria; rat brain mitochondria) [rel.units],IC50 (rat brain mitochondria; [5]) [µM]
CN1CCc2c(c3cc(Cl)ccc3n2CCc2ccc(C(F)(F)F)nc2)C1 [Compound 250],54,84,79,102,,,
CN1CCc2c(c3cc(Cl)ccc3n2CCc2nc(-c3ccccc3)cs2)C1 [Compound C1-8],,,,,~6,25,6.25 ± 6.25
"Cc1ccc2c(c1)c1c(n2CCc2ccc(C)nc2)CCN(C)C1 [Dimebon, dimebon, reference compound]",83,95,86,94,,1,66 ± 26
